For assay [1], the system named is E1371Q- and W1145Y/E1371Q-CFTR. Kind of assay: Intracellular SCN- blockade, I-V voltage ramps on excised patch. Type of assay: cell-based. The following applies: 2 mM or 10 mM cytoplasmic SCN-. The source says:
Also, Sonawane and Verkman
(2008), which carried out a structure-activity relationship study, could have been considered to understand whether the moieties of CFTRinh-172 that were found important for inhibitory activity correspond to interactions with specific parts of CFTR protein.
We thank the reviewer for pointing this out. Now, these two papers are both cited, and their contents are incorporated into the 2nd and 10th paragraph of the Discussion.
4) As a control, a CFTR inhibitor having a completely different structure could have been used to check that potency was not affected by mutagenesis.
Most CFTR inhibitors block CFTR pore from the cytoplasmic side in a voltage-dependent manner, such as glibenclamide (Sheppard and Robinson, 1997), NPPB (Walsh et al., 1999), and DNDS (Linsdell and Hanrahan, 1996). Since these CFTR inhibitors likely block the open channel by traveling down the internal vestibule to the narrow region of the pore, the mutations introduced to the Inh-172’s binding site, which is just below the narrow region, would inevitably affect the actions of these CFTR blockers. […]
Comparison of intracellular SCN- blockade on E1371Q- and W1145Y/E1371Q-CFTR. […] Fraction of block was calculated according to the equation “Fraction of block = 1 – (ISCN)/I0” where ISCN and I0 represent the blocked and unblocked current at a given voltage on the same patch. […]

The subject of assay [2] is "lock-opened" CFTR with dimerized NBDs. Also noted: method as in Zhou et al., 2002. The following applies: ref Zhou et al., 2002; cited from earlier work.

Each structure is given as a SMILES string. Entries after “also recorded” stand apart in the source; their conditions may differ.

Regarding `N#CS` [SCN-, thiocyanate], the “potency of SCN- (fraction of block), E1371Q- vs W1145Y/E1371Q-CFTR” value in assay [1] is given as “barely affected; also recorded: does not differ”.

In the case of `COc1ccc(Cl)cc1C(=O)NCCc1ccc(S(=O)(=O)NC(=O)NC2CCCCC2)cc1` [glibenclamide], in assay [2], the off-rate was ~ 10 s-1.

The values above are taken from article PMC11303713, “Allosteric inhibition of CFTR gating by CFTRinh-172 binding in the pore” (Nature Communications, 2024).
